Assay results published in the NIST ThermoML archive (doi:10.1021/je800713c).

Experiments:
[1] = mn = molality of the nth substance listed, in mol/kg; details: 298.15 K, 101 kPa, Liquid
[2] = cn = amount concentration of the nth substance listed, in mol/dm3; details: 298.15 K, 101 kPa, Liquid, Alternating current cell with electrodes

CC(C)C[C@H](NC(=O)CN)C(=O)O [glycyl-L-leucine] + O
[1], Vibrating tube method
Details | mass density [kg/m3]
m1 = 0.01944 | 1000.64
m1 = 0.02958 | 1001.13
m1 = 0.0395 | 1001.61
m1 = 0.04928 | 1002.08
m1 = 0.057 | 1002.44
m1 = 0.07128 | 1003.12
m1 = 0.07696 | 1003.39
m1 = 0.09125 | 1004.06

CC(C)[C@H](NC(=O)CN)C(=O)O [glycyl-L-valine] + O
[1], Vibrating tube method
Details | mass density [kg/m3]
m1 = 0.02261 | 1000.88
m1 = 0.03982 | 1001.76
m1 = 0.06223 | 1002.9
m1 = 0.07858 | 1003.73
m1 = 0.1017 | 1004.89
m1 = 0.1513 | 1007.38
m1 = 0.1799 | 1008.77

NCC(=O)NCC(=O)O [glycylglycine] + O
[1], Vibrating tube method
Details | mass density [kg/m3]
m1 = 0.06033 | 1003.05
m1 = 0.08146 | 1004.21
m1 = 0.1018 | 1005.33
m1 = 0.1481 | 1007.84
m1 = 0.2504 | 1013.33
m1 = 0.2965 | 1015.78
m1 = 0.3421 | 1018.08

CCCC(=O)[O-].[Na+] [sodium butyrate] + O
Details | mass density [kg/m3] | molar conductivity [S·m2/mol]
[1], m1 = 0.5 | 1016.31 | –
[1], m1 = 1 | 1033.73 | –
[1], m1 = 1.5 | 1049.36 | –
[1], m1 = 2 | 1064.03 | –
[2], c1 = 0.0003234 | – | 0.00796
[2], c1 = 0.001116 | – | 0.00795
[2], c1 = 0.001273 | – | 0.00794
[2], c1 = 0.001488 | – | 0.00792
[2], c1 = 0.00188 | – | 0.00788
[2], c1 = 0.002076 | – | 0.00787
[2], c1 = 0.00243 | – | 0.00784
[2], c1 = 0.003167 | – | 0.00766
[2], c1 = 0.006298 | – | 0.00753
[2], c1 = 0.008849 | – | 0.00744
[2], c1 = 0.01124 | – | 0.00737
[2], c1 = 0.01353 | – | 0.00732
[2], c1 = 0.0155 | – | 0.00727
[2], c1 = 0.01721 | – | 0.00724
[2], c1 = 0.01916 | – | 0.0072
[2], c1 = 0.02091 | – | 0.00717
[2], c1 = 0.02284 | – | 0.00714
[2], c1 = 0.02481 | – | 0.0071
[2], c1 = 0.02647 | – | 0.00707

O [water] + CC(C)C[C@H](NC(=O)CN)C(=O)O
Details | mass density [kg/m3]
[1], Vibrating tube method, m2 = 0 | 999.705

O [water] + CC(C)[C@H](NC(=O)CN)C(=O)O
Details | mass density [kg/m3]
[1], Vibrating tube method, m2 = 0 | 999.705

O [water] + NCC(=O)NCC(=O)O
Details | mass density [kg/m3]
[1], Vibrating tube method, m2 = 0 | 999.705
